Experimental data published in patent publication US4966900A, “Cephalosporin β-lactam compound and medicinal composition” (priority 1986, dated 1990).
Values after ≈ are worked out from the molar mass of the structure shown. Where a name gives a salt, the structure may show the parent alone.

Experiments:
Experiment in all cases: MIC
K. pneumoniae 4at521 = tested on: K. pneumoniae 4at521
S. aureus Smith = tested on: S. aureus Smith
P. vulgaris GN7919 = tested on: P. vulgaris GN7919
P. maltophilia OF247 = conditions: Stenotrophomonas maltophilia
P. aeruginosa 4au542 = tested on: P. aeruginosa 4au542
P. aeruginosa GN10362 = conditions: Pseudomonas aeruginosa, GN10362
S. marcescens GN10857 = tested on: S. marcescens GN10857
E. cloacae 908RN = conditions: Enterobacter cloacae
S. aureus IAA498 = type: cell-based; conditions: Staphylococcus aureus
Description: (§1) The minimum inhibition concentrations (MIC) of the compounds obtained in the respective examples described above were measured according to the standard method of Japanese Chemotherapy Association.

E. coli ML4707 = tested on: E. coli ML4707
E. coli GN5482 = tested on: E. coli GN5482
P. cepacia OF189 = tested on: P. cepacia OF189
C. freundii GN7391 = tested on: C. freundii GN7391
E. colacae GN7471 = tested on: E. colacae GN7471
P. aeruginosa 5D58-1 = tested on: P. aeruginosa 5D58-1
C. freundii 1U589 = tested on: C. freundii 1U589
C. freundii 5D60-1 = tested on: C. freundii 5D60-1
C. freundii 1U692 = tested on: C. freundii 1U692
E. cloacae 1Y247 = type: cell-based; conditions: Enterobacter cloacae, Table 6, read-out: MIC
Description: as §1

C. freundii 1R526 = conditions: Citrobacter freundii, 1R526
C. freundii 1R524 = conditions: Citrobacter freundii, 1R524
E. cloacae 1V25 = conditions: Enterobacter cloacae
E. cloacae 5D63-2 = conditions: Enterobacter cloacae, 5D632
C. freundii 1R523 = conditions: Citrobacter freundii, 1R523
E. cloacae 5D52-2 = conditions: Enterobacter cloacae, 5D522
C. freundii 1R527 = conditions: Citrobacter freundii, 1R527
[1] = Pseudomonas aeruginosa, 4AU542, P. aeruginosa 4au542, Table 5
[2] = Serratia marcescens, GN10857, S. marcescens GN10857, Table 5
[3] = Escherichia coli, ML4707, E. coli ML4707, Table 5
[4] = Escherichia coli, GN5482, E. coli GN5482, Table 5
[5] = Burkholderia cepacia, OF189, P. cepacia OF189, Table 5
[6] = Citrobacter freundii, GN7391, C. freundii GN7391, Table 5
[7] = Pseudomonas aeruginosa, 5D581, P. aeruginosa 5D58-1, Table 5

`Cc1cc(SCC2=C(C(=O)O)N3C(=O)C(NC(=O)C(=NOC(C)(C)C(=O)NNC(=O)c4ccc(O)c(O)c4)c4csc(N)n4)[C@H]3SC2)n2nc(C(F)(F)F)nc2n1` (stereo partly shown) [Example 55, 7-{2-[2-Amino-1,3-thiazol-4-yl]-2-[1-(3-(3,4-dihydroxybenzoyl)carbazoyl)-1-methylethoxyimino]acetamido}-3-[(5-methyl-2-trifluoromethyl-s-triazolo[1,5-a]pyrimidin-7-yl)-thiomethyl]-3-cephem-4-carboxylic acid] showed an MIC (K. pneumoniae 4at521; Klebsiella pneumoniae, 4AT521) of 0.025 µg/mL (≈ 0.0293 µM), an MIC (S. aureus Smith; Staphylococcus aureus, Table 7) of 6.25 µg/mL (≈ 7.34 µM) and an MIC (P. vulgaris GN7919; Proteus vulgaris, GN7919) of 1.56 µg/mL (≈ 1.83 µM). It also gave an MIC (P. maltophilia OF247; Table 7) of 1.56 µg/mL (≈ 1.83 µM), an MIC (P. aeruginosa 4au542; Pseudomonas aeruginosa, 4AU542, P. aeruginosa 4au542, Table 7) of 0.39 µg/mL (≈ 0.458 µM) and an MIC (P. aeruginosa GN10362) of 0.39 µg/mL (≈ 0.458 µM). The MIC (S. marcescens GN10857; Serratia marcescens, GN10857, S. marcescens GN10857, Table 7) was 1.56 µg/mL (≈ 1.83 µM), the MIC (E. cloacae 908RN; E. colacae 908RN, Table 7) was 12.5 µg/mL (≈ 14.7 µM) and the MIC (S. aureus IAA498; Table 7) was 6.25 µg/mL (≈ 7.34 µM). It also gave an MIC (E. coli ML4707; Escherichia coli, ML4707, E. coli ML4707, Table 7) of 0.05 µg/mL (≈ 0.0587 µM), an MIC (E. coli GN5482; Escherichia coli, GN5482, E. coli GN5482, Table 7) of 0.025 µg/mL (≈ 0.0293 µM) and an MIC (P. cepacia OF189; Burkholderia cepacia, OF189, P. cepacia OF189, Table 7) of 0.05 µg/mL (≈ 0.0587 µM). It also gave an MIC (C. freundii GN7391; Citrobacter freundii, GN7391, C. freundii GN7391, Table 7) of 6.25 µg/mL (≈ 7.34 µM), an MIC (E. colacae GN7471; Table 7) of 25 µg/mL (≈ 29.3 µM) and an MIC (P. aeruginosa 5D58-1; Pseudomonas aeruginosa, 5D581, P. aeruginosa 5D58-1, Table 7) of 0.39 µg/mL (≈ 0.458 µM).
In the case of cephazoline [CAZ, reference compound], the MIC (K. pneumoniae 4at521; K. pneumoniae 4at521, Table 5) is reported as 0.10 µg/mL, the MIC (S. aureus Smith; Table 5) is reported as 6.25 µg/mL and the MIC (C. freundii 1U589; C. freundii 1U589, Table 6) is reported as 100 µg/mL. For the same molecule, the MIC (C. freundii 1U589; C. freundii 1U589, Table 8) was 100 µg/mL, the MIC (P. vulgaris GN7919; P. vulgaris Gn7919, Table 5) was 1.56 µg/mL and the MIC (C. freundii 5D60-1; C. freundii 5D60-1, Table 6) was > 100 µg/mL. The MIC (C. freundii 5D60-1; C. freundii 5D60-1, Table 8) was > 100 µg/mL, the MIC (C. freundii 1U692; C. freundii 1U692, Table 6) was 100 µg/mL and the MIC (C. freundii 1U692; C. freundii 1U692, Table 8) was 50.000 µg/mL. It also gave an MIC (P. aeruginosa 4au542; P. aeruginosa 4au542, Table 5) of 1.56 µg/mL, an MIC (S. marcescens GN10857; S. marcescens GN10857, Table 5) of 1.56 µg/mL and an MIC (E. coli ML4707; E. coli ML4707, Table 5) of 0.05 µg/mL. For the same molecule, the MIC (E. coli GN5482; E. coli GN5482, Table 5) was 0.78 µg/mL, the MIC (P. cepacia OF189; P. cepacia OF189, Table 5) was 3.13 µg/mL and the MIC (C. freundii GN7391; C. freundii GN7391, Table 5) was > 100.00 µg/mL. For the same molecule, the MIC (C. freundii GN7391; C. freundii GN7391, Table 6) was > 100 µg/mL, the MIC (E. colacae GN7471; Table 5) was 3.13 µg/mL and the MIC (P. aeruginosa 5D58-1; P. aeruginosa 5D58-1, Table 5) was 0.78 µg/mL.
Molecule `Cc1cc(SCC2=C(C(=O)O)N3C(=O)C(NC(=O)C(=NOC(C)(C)C(=O)NNC(=O)c4ccc(O)c(O)c4)c4csc(N)n4)C3SC2)n2nnnc2n1` (stereo not shown) [Example 29, 7-{2-[2-amino-1,3-thiazol-4-yl]-2-[1-(3-(3,4-dihydroxybenzoyl)carbazoyl)-1-methylethoxyimino]acetamide}-3-[(5-methyltetrazolo[1,5-a]pyrimidin-7-yl)thiomethyl]-3-cephem-4-carboxylic acid.hydrochloride] has an MIC (K. pneumoniae 4at521; Klebsiella pneumoniae, 4AT521) of 0.012 µg/mL, an MIC (S. aureus Smith; Staphylococcus aureus, Table 5) of 1.56 µg/mL and an MIC (C. freundii 1U589; Citrobacter freundii, 1U589) of 0.78 µg/mL. It also gave an MIC (P. vulgaris GN7919; Proteus vulgaris, GN7919) of 6.25 µg/mL, an MIC (P. maltophilia OF247; Table 5) of 0.2 µg/mL and an MIC (C. freundii 5D60-1; Citrobacter freundii, 5D601) of 0.39 µg/mL. The MIC (C. freundii 1U692; Citrobacter freundii, 1U692) was 12.5 µg/mL, the MIC (P. aeruginosa 4au542; [1]) was 0.78 µg/mL and the MIC (P. aeruginosa GN10362) was 0.39 µg/mL. For the same molecule, the MIC (S. marcescens GN10857; [2]) was 0.39 µg/mL, the MIC (E. cloacae 908RN; E. cloacae 908RN, Table 6) was 3.13 µg/mL and the MIC (E. cloacae 908RN; E. colacae 908RN, Table 5) was 6.25 µg/mL. The MIC (E. cloacae 1Y247) was 0.78 µg/mL, the MIC (S. aureus IAA498; Table 5) was 3.13 µg/mL and the MIC (E. coli ML4707; [3]) was < 0.006 µg/mL. The MIC (C. freundii 1R526) was 0.2 µg/mL, the MIC (E. coli GN5482; [4]) was 0.025 µg/mL and the MIC (C. freundii 1R524) was 0.78 µg/mL. The MIC (E. cloacae 1V25) was 3.13 µg/mL, the MIC (E. cloacae 5D63-2) was 0.78 µg/mL and the MIC (P. cepacia OF189; [5]) was < 0.006 µg/mL. It also gave an MIC (C. freundii 1R523) of 0.2 µg/mL, an MIC (C. freundii GN7391; [6]) of 6.25 µg/mL and an MIC (C. freundii GN7391; Citrobacter freundii, GN7391, C. freundii GN7391, Table 6) of 0.012 µg/mL. For the same molecule, the MIC (E. cloacae 5D52-2) was 0.78 µg/mL, the MIC (C. freundii 1R527) was 0.78 µg/mL and the MIC (E. colacae GN7471; Table 5) was 1.56 µg/mL. It also gave an MIC (P. aeruginosa 5D58-1; [7]) of 0.39 µg/mL.
`CC(C)(ON=C(C(=O)NC1C(=O)N2C(C(=O)O)=C(CSc3ccnc4ncnn34)CSC12)c1csc(N)n1)C(=O)NNC(=O)c1ccc(O)c(O)c1` (stereo not shown) [Example 38, 7-{2-[2-Amino-1,3-thiazol-4-yl]-2-[1-(3-(3,4-dihydroxybenzoyl)carbazoyl)-1-methylethoxyimino]acetamide}-3-[(s-triazolo[1,5-a]pyrimidin-7-yl)thiomethyl]-3-cephem-4-carboxylic acid.hydrochloride] was tested, and the MIC (K. pneumoniae 4at521; Klebsiella pneumoniae, 4AT521) was 0.012 µg/mL, the MIC (S. aureus Smith; Staphylococcus aureus, Table 5) was 1.56 µg/mL and the MIC (P. vulgaris GN7919; Proteus vulgaris, GN7919) was 1.56 µg/mL. The MIC (P. maltophilia OF247; Table 5) was 0.78 µg/mL, the MIC (P. aeruginosa 4au542; [1]) was 0.1 µg/mL and the MIC (P. aeruginosa GN10362) was 0.1 µg/mL. For the same molecule, the MIC (S. marcescens GN10857; [2]) was 0.39 µg/mL, the MIC (E. cloacae 908RN; E. colacae 908RN, Table 5) was 25 µg/mL and the MIC (S. aureus IAA498; Table 5) was 3.13 µg/mL. For the same molecule, the MIC (E. coli ML4707; [3]) was 0.012 µg/mL, the MIC (E. coli GN5482; [4]) was 0.025 µg/mL and the MIC (P. cepacia OF189; [5]) was 0.025 µg/mL. The MIC (C. freundii GN7391; [6]) was 25 µg/mL, the MIC (E. colacae GN7471; Table 5) was 3.13 µg/mL and the MIC (P. aeruginosa 5D58-1; [7]) was 0.39 µg/mL.
